Test results taken from publication PMC10252048, “Correction: Gubič et al. Design of New Potent and Selective Thiophene-Based KV1.3 Inhibitors and Their Potential for Anticancer Activity. Cancers 2022, 14, 2595” (Cancers, 2023).

Legend:
Assay in all cases: selectivity, HiClamp system on oocytes
Assay type in all cases: cell-based
Conditions in all cases: 10 µM
KV1.1 = molecular target: T1, KV1.1 (Homo sapiens, UniProt Q09470)
T1 construct: expressed in transfected cells; host or cells: Xenopus laevis oocytes

KV1.2 = molecular target: T2, KV1.2 (Homo sapiens, UniProt P16389)
T2 construct: expressed in transfected cells; host or cells: Xenopus laevis oocytes

KV1.4 = molecular target: T3, KV1.4 (Homo sapiens, UniProt P22459)
T3 construct: expressed in transfected cells; host or cells: Xenopus laevis oocytes

KV1.5 = molecular target: T4, KV1.5 (Homo sapiens, UniProt P22460)
T4 construct: expressed in transfected cells; host or cells: Xenopus laevis oocytes

KV1.6 = molecular target: T5, KV1.6 (Homo sapiens, UniProt P17658)
T5 construct: expressed in transfected cells; host or cells: Xenopus laevis oocytes

KV2.1 = molecular target: T6, KV2.1 (Homo sapiens, UniProt Q14721)
T6 construct: expressed in transfected cells; host or cells: Xenopus laevis oocytes
T6 sequence (Q14721 1-858): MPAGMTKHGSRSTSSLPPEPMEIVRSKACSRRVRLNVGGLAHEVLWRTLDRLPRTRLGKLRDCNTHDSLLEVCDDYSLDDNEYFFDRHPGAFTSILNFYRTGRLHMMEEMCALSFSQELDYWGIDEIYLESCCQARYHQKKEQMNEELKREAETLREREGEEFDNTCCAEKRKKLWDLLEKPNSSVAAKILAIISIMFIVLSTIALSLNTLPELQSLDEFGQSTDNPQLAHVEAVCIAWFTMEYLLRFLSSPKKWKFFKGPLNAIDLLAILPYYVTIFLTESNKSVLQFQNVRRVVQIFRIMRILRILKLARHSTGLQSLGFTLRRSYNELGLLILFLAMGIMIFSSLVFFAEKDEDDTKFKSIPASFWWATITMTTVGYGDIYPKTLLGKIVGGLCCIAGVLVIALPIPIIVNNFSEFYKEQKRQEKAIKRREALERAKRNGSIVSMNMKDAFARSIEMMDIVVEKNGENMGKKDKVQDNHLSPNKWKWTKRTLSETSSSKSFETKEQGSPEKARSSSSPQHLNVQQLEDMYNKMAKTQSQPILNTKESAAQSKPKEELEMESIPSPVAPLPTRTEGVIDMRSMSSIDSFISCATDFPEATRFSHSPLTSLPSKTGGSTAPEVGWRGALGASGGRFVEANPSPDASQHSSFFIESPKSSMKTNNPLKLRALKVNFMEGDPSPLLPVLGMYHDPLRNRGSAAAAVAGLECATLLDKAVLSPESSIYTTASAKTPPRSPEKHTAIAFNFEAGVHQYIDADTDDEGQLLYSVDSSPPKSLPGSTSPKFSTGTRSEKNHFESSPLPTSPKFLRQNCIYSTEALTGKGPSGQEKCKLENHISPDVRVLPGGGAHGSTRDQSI

KV4.2 = molecular target: T7, KV4.2 (Homo sapiens, UniProt Q9NZV8)
T7 construct: expressed in transfected cells; host or cells: Xenopus laevis oocytes
T7 sequence (Q9NZV8 1-630): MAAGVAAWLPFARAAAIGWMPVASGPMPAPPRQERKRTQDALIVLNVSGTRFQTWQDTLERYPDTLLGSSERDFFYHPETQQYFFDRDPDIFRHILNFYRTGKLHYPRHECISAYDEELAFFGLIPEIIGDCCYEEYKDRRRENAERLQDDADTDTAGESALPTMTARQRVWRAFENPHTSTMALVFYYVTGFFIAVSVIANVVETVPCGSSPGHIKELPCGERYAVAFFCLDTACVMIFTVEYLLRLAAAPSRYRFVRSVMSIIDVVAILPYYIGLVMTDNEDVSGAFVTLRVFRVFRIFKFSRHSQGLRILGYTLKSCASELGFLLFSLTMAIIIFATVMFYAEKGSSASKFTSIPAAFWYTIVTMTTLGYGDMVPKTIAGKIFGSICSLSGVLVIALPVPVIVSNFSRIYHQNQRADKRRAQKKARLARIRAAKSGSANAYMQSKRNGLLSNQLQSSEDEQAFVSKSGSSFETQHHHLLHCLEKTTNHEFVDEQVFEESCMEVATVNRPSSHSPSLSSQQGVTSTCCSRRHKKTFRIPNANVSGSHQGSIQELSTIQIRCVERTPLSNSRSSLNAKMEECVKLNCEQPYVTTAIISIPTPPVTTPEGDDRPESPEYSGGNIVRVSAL

KV10.1 = molecular target: T8, KV10.1 (Homo sapiens, UniProt O95259)
T8 construct: expressed in transfected cells; host or cells: Xenopus laevis oocytes
T8 sequence (O95259 1-989): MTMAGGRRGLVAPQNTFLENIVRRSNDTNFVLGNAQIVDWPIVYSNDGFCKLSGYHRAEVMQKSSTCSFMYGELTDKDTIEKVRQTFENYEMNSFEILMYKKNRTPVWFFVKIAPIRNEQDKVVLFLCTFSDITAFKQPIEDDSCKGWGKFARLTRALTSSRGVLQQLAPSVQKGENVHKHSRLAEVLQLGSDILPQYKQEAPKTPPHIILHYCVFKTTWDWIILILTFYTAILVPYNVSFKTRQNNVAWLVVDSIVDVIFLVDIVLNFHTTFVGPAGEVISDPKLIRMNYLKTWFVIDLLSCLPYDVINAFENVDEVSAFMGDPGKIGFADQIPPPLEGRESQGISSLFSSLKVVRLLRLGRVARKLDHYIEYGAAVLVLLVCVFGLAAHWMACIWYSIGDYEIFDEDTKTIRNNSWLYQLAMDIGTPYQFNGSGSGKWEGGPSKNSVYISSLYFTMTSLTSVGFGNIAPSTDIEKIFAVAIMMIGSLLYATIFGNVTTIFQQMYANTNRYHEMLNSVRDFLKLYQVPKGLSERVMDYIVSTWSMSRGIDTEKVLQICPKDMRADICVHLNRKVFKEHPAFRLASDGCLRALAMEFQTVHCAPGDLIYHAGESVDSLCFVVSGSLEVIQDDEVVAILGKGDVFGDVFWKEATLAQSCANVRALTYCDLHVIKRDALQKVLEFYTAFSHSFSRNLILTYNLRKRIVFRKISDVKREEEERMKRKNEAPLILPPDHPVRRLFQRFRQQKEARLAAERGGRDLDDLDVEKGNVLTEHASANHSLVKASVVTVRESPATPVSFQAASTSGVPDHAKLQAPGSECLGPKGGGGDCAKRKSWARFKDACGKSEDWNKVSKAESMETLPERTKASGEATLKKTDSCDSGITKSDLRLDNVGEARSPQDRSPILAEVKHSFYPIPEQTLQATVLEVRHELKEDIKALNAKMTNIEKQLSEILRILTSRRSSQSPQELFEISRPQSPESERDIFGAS

T3 sequence (P22459 whole entry): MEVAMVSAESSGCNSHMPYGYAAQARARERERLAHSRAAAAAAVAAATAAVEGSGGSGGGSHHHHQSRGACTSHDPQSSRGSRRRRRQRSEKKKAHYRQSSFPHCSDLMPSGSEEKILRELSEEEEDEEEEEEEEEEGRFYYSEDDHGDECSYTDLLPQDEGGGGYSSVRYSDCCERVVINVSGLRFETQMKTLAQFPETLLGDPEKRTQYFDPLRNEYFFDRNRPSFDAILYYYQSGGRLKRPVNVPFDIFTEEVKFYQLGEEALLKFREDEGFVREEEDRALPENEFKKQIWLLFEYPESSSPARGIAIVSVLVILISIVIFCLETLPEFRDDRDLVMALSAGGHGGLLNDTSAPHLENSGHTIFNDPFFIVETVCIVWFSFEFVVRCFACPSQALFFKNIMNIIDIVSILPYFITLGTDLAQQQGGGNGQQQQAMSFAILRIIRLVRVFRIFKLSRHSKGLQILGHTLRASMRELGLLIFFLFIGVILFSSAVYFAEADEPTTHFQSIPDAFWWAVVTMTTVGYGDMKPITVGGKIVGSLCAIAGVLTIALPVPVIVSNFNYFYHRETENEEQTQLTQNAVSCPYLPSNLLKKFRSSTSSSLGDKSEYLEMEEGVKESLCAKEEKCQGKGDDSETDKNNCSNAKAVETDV
T5 sequence (P17658 whole entry): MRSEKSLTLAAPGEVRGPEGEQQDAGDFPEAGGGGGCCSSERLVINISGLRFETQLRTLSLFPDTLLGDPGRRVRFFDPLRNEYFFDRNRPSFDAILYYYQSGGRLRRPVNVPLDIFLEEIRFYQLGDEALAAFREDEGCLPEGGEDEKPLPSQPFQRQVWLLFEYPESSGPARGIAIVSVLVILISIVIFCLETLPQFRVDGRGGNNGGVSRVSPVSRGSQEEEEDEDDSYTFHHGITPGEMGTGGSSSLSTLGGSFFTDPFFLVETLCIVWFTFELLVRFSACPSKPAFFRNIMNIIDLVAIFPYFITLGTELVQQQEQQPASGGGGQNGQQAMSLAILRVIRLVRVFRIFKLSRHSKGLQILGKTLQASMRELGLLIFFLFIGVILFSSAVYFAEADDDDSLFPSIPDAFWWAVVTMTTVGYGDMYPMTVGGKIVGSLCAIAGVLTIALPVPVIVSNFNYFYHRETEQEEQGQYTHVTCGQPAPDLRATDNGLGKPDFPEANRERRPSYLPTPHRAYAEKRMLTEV
T1 sequence (Q09470 whole entry): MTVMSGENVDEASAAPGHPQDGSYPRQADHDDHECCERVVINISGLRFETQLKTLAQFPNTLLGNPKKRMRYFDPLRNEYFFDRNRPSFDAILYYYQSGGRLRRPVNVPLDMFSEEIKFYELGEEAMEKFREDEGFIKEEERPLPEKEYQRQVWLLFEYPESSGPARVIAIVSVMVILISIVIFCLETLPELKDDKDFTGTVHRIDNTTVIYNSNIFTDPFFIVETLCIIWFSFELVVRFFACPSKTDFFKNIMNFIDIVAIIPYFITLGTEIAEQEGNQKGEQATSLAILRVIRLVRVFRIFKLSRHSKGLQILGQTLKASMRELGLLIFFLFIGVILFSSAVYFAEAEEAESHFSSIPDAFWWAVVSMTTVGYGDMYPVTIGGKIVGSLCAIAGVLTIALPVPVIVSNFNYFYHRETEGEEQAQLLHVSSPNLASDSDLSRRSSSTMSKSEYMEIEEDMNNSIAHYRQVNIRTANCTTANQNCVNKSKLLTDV
T2 sequence (P16389 whole entry): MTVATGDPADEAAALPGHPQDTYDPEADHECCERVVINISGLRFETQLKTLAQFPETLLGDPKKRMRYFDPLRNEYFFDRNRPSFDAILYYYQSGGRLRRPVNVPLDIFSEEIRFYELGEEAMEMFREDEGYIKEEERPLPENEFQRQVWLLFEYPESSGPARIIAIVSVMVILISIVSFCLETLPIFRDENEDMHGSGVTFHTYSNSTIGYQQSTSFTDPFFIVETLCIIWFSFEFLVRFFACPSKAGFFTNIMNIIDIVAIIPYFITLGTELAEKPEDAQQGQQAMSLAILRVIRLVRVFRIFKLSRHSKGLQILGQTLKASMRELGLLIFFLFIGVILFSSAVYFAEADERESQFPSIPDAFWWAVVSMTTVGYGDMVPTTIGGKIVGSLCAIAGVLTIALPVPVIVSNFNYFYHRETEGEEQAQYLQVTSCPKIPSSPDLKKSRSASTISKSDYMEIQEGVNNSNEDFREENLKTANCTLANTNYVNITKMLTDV
T4 sequence (P22460 whole entry): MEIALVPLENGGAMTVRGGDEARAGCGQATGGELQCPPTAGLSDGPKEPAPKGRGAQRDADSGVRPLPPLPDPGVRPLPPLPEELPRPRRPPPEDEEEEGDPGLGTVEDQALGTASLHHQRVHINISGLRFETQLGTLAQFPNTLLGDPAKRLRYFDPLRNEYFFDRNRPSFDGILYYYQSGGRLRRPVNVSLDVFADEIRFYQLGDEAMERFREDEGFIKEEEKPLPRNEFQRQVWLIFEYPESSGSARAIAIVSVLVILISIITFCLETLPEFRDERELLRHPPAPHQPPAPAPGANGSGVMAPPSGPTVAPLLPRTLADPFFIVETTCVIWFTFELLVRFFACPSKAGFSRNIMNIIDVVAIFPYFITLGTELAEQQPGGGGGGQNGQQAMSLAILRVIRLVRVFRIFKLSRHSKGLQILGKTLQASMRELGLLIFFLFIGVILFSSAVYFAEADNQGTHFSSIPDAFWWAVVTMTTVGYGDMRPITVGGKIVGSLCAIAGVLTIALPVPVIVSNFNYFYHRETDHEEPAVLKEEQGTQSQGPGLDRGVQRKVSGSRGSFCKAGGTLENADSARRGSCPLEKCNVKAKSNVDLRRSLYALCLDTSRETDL

O=c1ccc2c(OCCCCOc3ccccc3)c3ccoc3cc2o1 [PAP-1 (1), PAP-1]
no significant effects: effect on KV1.1 (KV1.1) | effect on KV1.2 (KV1.2) | effect on KV1.4 (KV1.4) | effect on KV1.5 (KV1.5) | effect on KV1.6 (KV1.6) | effect on KV2.1 (KV2.1) | effect on KV4.2 (KV4.2) | effect on KV10.1 (KV10.1)
